ChEMBL document CHEMBL5705903, “A DNA Hypomethylation Signature Predicts Antitumor Activity of LSD1 Inhibitors in SCLC” (Cancer Cell, 2015)

Key:
[1] = molecular target: Sodium-dependent noradrenaline transporter (Homo sapiens, UniProt P23975); experiment: Inhibition of NET (unknown origin)
Histamine H1 receptor = Histamine H1 receptor (Homo sapiens, UniProt P35367); experiment: Antagonist activity at Histamine H1 receptor (unknown origin); assay type: functional
[2] = molecular target: Nuclear receptor subfamily 1 group I member 2 (Homo sapiens, UniProt O75469); experiment: Activation of PXR (unknown origin)
Nuclear receptor subfamily 1 group I member 2, sequence (O75469 whole entry): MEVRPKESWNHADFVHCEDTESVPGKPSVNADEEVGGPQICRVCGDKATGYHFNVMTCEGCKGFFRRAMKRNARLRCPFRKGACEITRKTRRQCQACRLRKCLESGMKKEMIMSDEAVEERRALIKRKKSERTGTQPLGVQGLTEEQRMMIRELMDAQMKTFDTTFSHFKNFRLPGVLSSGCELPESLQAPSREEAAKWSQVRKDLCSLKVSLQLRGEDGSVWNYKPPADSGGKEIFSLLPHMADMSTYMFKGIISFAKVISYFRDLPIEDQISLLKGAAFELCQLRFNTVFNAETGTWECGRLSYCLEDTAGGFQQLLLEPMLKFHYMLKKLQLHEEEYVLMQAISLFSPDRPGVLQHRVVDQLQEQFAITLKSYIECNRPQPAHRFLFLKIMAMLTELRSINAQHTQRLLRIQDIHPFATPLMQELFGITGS

[3] = molecular target: Potassium voltage-gated channel subfamily A member 5 (Homo sapiens, UniProt P22460); experiment: Inhibition of Kv1.5 (unknown origin)
Potassium voltage-gated channel subfamily A member 5, sequence (P22460 whole entry): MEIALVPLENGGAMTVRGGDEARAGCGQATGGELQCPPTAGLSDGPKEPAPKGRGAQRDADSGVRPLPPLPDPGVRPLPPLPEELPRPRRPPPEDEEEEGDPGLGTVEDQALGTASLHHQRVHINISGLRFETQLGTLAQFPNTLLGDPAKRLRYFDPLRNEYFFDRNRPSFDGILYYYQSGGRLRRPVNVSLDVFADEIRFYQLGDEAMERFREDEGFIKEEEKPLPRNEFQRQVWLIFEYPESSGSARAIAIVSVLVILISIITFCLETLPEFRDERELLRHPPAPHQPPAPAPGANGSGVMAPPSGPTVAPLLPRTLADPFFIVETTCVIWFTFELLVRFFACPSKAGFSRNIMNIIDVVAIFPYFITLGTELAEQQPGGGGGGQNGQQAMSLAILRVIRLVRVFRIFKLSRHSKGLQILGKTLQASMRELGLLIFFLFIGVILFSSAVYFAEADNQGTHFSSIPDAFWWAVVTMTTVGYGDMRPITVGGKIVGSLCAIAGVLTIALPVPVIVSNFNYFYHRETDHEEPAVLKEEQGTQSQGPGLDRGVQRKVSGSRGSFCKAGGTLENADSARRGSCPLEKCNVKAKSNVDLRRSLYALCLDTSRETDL

Aurora kinase B = Aurora kinase B (Homo sapiens, UniProt Q96GD4); experiment: Inhibition of Aurora B (unknown origin)
Aurora kinase B, sequence (Q96GD4 whole entry): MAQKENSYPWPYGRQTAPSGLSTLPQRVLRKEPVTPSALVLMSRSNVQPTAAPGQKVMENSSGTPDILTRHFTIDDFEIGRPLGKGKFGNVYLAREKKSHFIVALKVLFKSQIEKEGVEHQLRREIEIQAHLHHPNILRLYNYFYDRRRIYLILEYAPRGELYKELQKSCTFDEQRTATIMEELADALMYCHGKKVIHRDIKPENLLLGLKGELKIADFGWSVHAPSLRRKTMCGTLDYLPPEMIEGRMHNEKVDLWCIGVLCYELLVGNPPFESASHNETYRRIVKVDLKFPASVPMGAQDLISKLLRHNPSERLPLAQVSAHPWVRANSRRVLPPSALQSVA

[4] = molecular target: T1, Muscarinic acetylcholine receptor M1 (Homo sapiens, UniProt P11229); experiment: Antagonist activity at Muscarinic M1 receptor (unknown origin); assay type: functional
T1 sequence (P11229 whole entry): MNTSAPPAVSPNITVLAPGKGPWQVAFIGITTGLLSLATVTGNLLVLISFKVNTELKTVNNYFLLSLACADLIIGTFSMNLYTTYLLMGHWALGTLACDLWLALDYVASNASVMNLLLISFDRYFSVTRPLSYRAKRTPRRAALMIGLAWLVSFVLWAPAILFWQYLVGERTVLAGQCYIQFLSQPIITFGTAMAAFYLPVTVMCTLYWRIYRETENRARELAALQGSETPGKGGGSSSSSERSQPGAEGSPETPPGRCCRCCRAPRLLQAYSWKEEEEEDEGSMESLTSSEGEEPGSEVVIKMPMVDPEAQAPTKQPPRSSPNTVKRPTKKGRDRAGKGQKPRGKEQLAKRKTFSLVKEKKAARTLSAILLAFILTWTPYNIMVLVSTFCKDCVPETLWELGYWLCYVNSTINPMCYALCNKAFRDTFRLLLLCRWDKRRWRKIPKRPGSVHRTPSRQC

[5] = molecular target: T2, 5-hydroxytryptamine receptor 1B (Homo sapiens, UniProt P28222); experiment: Agonist activity at 5-HT1B receptor (unknown origin); assay type: functional
T2 sequence (P28222 whole entry): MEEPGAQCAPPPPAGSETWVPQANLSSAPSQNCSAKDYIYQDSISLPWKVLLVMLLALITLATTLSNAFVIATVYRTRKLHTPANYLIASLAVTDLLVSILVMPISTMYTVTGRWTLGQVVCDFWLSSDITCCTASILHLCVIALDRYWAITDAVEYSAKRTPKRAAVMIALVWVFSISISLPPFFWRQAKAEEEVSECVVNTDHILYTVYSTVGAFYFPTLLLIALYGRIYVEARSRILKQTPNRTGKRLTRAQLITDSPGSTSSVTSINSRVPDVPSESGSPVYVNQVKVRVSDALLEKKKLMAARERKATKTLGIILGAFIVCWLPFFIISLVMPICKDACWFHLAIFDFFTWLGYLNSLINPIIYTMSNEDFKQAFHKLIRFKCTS

Mu-type opioid receptor = Mu-type opioid receptor (Homo sapiens, UniProt P35372); experiment: Agonist activity at MOR (unknown origin); assay type: functional
[6] = molecular target: T2, 5-hydroxytryptamine receptor 1B; experiment: Antagonist activity at 5-HT1B (unknown origin); assay type: functional
[7] = molecular target: T3, 5-hydroxytryptamine receptor 2C (Homo sapiens, UniProt P28335); experiment: Antagonist activity at 5-HT2C receptor (unknown origin); assay type: functional
T3 sequence (P28335 whole entry): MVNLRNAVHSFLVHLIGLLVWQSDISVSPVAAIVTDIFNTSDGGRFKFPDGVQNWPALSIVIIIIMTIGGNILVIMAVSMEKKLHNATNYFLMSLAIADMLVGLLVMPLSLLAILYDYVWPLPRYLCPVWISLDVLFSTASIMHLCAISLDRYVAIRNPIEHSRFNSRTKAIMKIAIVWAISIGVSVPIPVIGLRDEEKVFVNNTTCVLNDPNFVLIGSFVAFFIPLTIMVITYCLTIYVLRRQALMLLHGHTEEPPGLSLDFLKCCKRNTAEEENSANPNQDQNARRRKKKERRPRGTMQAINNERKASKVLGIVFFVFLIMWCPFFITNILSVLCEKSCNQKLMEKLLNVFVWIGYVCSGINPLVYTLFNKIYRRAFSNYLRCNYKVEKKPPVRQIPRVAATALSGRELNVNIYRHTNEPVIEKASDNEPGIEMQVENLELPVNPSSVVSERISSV

[8] = molecular target: Sodium-dependent serotonin transporter (Homo sapiens, UniProt P31645); experiment: Inhibition of SERT (unknown origin)
Sodium-dependent serotonin transporter, sequence (P31645 whole entry): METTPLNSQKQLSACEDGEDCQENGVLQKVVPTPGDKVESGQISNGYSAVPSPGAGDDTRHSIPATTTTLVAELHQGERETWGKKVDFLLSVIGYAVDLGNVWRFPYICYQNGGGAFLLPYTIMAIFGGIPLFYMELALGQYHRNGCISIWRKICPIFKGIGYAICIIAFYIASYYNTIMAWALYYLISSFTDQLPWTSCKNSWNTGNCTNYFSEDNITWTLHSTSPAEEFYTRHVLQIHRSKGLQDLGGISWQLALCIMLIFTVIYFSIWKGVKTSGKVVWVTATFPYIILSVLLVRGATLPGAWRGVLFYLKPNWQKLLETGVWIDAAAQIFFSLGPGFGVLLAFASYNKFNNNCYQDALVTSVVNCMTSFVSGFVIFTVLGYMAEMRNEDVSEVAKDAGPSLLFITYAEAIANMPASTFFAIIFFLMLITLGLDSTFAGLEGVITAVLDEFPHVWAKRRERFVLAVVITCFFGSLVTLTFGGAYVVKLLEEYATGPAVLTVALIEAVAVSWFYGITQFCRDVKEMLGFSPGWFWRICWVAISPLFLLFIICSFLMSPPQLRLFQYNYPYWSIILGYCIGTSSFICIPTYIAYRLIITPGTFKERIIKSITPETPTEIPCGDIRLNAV

[9] = molecular target: T4, Muscarinic acetylcholine receptor M2 (Homo sapiens, UniProt P08172); experiment: Agonist activity at Muscarinic M2 receptor (unknown origin); assay type: functional
T4 sequence (P08172 whole entry): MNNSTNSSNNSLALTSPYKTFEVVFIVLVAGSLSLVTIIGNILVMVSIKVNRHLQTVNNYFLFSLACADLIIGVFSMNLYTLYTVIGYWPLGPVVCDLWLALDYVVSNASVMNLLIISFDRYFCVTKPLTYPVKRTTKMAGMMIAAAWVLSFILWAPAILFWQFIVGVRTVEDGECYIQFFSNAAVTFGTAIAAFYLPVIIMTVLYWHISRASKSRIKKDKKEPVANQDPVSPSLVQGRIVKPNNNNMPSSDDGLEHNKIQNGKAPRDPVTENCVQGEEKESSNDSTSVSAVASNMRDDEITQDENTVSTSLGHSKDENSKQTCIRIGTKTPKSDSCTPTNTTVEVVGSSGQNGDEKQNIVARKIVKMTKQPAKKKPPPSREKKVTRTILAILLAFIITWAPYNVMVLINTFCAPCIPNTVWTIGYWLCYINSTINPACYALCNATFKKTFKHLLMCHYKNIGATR

[10] = molecular target: Aryl hydrocarbon receptor (Homo sapiens, UniProt P35869); experiment: Activation of AhR (unknown origin)
[11] = molecular target: T5, Kappa-type opioid receptor (Homo sapiens, UniProt P41145); experiment: Antagonist activity at KOR (unknown origin); assay type: functional
T5 sequence (P41145 whole entry): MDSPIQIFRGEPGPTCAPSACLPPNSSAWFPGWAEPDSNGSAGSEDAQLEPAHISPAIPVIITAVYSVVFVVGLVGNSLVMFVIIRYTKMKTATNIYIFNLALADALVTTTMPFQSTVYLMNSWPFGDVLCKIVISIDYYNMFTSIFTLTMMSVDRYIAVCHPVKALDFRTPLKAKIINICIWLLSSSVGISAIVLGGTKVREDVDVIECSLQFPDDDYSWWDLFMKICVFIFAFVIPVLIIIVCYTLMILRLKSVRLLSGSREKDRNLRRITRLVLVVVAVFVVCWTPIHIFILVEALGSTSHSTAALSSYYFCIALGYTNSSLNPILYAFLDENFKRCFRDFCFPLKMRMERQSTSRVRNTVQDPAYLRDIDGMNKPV

D(2) dopamine receptor = D(2) dopamine receptor (Homo sapiens, UniProt P14416); experiment: Agonist activity at Dopamine D2 receptor (unknown origin); assay type: functional
[12] = molecular target: Alpha-1B adrenergic receptor (Homo sapiens, UniProt P35368); experiment: Agonist activity at Adrenergic a1B receptor (unknown origin); assay type: functional
[13] = molecular target: cGMP-inhibited 3',5'-cyclic phosphodiesterase 3A (Homo sapiens, UniProt Q14432); experiment: Inhibition of PDE3A (unknown origin)
cGMP-inhibited 3',5'-cyclic phosphodiesterase 3A, sequence (Q14432 whole entry): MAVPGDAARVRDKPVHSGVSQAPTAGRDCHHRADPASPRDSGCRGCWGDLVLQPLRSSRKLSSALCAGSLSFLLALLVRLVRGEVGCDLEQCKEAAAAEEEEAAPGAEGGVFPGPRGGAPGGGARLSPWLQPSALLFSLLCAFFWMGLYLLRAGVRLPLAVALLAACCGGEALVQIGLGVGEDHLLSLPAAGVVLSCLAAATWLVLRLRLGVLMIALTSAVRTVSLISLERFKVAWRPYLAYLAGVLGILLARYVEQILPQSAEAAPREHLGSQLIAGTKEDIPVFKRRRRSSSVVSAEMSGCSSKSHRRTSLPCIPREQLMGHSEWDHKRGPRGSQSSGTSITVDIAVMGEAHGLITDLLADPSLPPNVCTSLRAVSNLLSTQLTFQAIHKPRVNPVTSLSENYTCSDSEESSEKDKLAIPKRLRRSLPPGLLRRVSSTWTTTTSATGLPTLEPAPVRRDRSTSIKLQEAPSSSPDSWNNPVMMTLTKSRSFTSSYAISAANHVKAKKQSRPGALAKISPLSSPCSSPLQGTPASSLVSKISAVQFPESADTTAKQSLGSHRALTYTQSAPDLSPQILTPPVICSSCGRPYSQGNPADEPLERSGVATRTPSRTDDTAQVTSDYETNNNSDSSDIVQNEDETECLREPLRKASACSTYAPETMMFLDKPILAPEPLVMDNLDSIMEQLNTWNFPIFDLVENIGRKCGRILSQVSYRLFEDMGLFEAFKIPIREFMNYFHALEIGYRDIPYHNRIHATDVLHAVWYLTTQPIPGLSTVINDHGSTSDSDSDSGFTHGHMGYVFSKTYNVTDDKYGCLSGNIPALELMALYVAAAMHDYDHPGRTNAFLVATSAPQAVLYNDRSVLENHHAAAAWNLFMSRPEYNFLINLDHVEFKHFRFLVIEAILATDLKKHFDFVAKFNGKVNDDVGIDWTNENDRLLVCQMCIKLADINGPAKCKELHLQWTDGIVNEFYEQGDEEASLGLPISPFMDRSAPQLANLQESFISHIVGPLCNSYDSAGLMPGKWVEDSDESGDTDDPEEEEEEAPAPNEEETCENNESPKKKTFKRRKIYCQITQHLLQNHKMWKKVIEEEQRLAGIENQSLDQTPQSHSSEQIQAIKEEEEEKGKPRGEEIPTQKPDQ

D(1A) dopamine receptor = D(1A) dopamine receptor (Homo sapiens, UniProt P21728); experiment: Antagonist activity at Dopamine D1 receptor (unknown origin); assay type: functional
[14] = molecular target: T5, Kappa-type opioid receptor; experiment: Agonist activity at KOR (unknown origin); assay type: functional
[15] = Inhibition of AChR receptor (unknown origin); design: species or system Homo sapiens
[16] = molecular target: T6, 5-hydroxytryptamine receptor 2A (Homo sapiens, UniProt P28223); experiment: Antagonist activity at 5-HT2A receptor (unknown origin); assay type: functional
T6 sequence (P28223 whole entry): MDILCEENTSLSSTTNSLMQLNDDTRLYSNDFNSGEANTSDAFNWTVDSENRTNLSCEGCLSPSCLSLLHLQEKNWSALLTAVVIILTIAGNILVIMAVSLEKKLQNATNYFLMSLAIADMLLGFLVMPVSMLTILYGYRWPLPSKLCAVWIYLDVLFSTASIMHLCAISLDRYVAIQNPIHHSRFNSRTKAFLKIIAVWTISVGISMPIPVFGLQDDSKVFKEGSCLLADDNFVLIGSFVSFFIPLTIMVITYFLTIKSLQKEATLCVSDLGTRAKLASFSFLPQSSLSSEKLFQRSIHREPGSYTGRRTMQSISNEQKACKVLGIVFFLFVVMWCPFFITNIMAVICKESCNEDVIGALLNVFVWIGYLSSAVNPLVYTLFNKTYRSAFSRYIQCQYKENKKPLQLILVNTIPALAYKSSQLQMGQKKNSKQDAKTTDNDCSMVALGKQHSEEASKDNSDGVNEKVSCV

[17] = molecular target: Voltage-gated potassium channel, IKs; KCNQ1(Kv7.1)/KCNE1(MinK) (Homo sapiens, UniProt P15382+P51787); experiment: Inhibition of KCNQ1/minK (unknown origin); assay type: protein-complex assay
[18] = molecular target: T4, Muscarinic acetylcholine receptor M2; experiment: Antagonist activity at Muscarinic M2 receptor (unknown origin); assay type: functional
Cannabinoid receptor 2 = Cannabinoid receptor 2 (Homo sapiens, UniProt P34972); experiment: Agonist activity at Cannabinoid CB2 receptor (unknown origin); assay type: functional
[19] = molecular target: Serotonin 3 (5-HT3) receptor; experiment: Inhibition of 5-HT3 receptor (unknown origin); assay type: protein-complex assay, Homo sapiens
[20] = molecular target: Solute carrier organic anion transporter family member 1B1 (Homo sapiens, UniProt Q9Y6L6); experiment: Inhibition of OATP1B1 (unknown origin)
Acetylcholinesterase = Acetylcholinesterase (Homo sapiens, UniProt P22303); experiment: Inhibition of AChE (unknown origin)
[21] = molecular target: T6, 5-hydroxytryptamine receptor 2A; experiment: Agonist activity at 5-HT2A receptor (unknown origin); assay type: functional
Adenosine receptor A2a = Adenosine receptor A2a (Homo sapiens, UniProt P29274); experiment: Agonist activity at Adenosine A2a receptor (unknown origin); assay type: functional
[22] = molecular target: T3, 5-hydroxytryptamine receptor 2C; experiment: Agonist activity at 5-HT2C receptor (unknown origin); assay type: functional
[23] = molecular target: Beta-2 adrenergic receptor (Homo sapiens, UniProt P07550); experiment: Antagonist activity at Adrenergic b2 receptor (unknown origin); assay type: functional
Beta-2 adrenergic receptor, sequence (P07550 whole entry): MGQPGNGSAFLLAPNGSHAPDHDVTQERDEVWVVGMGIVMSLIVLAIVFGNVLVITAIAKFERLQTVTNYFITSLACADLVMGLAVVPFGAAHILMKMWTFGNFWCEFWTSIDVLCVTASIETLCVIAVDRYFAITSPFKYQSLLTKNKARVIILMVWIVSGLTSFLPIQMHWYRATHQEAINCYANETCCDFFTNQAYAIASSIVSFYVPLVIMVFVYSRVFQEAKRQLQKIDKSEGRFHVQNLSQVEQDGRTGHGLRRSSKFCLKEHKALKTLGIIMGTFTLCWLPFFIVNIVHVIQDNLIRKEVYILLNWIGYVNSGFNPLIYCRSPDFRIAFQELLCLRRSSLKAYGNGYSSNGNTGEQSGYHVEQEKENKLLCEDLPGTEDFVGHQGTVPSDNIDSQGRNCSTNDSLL

[24] = molecular target: Sodium channel protein type 5 subunit alpha (Homo sapiens, UniProt Q14524); experiment: Inhibition of Nav1.5 (unknown origin)

O=C(O)c1ccc(CN2CCC(CN[C@@H]3C[C@H]3c3ccccc3)CC2)cc1 [GSK2879552]
> 40 µM: EC50 (Histamine H1 receptor) | EC50 [7] | EC50 [12] | EC50 [21] | EC50 [22]
> 50 µM: IC50 [15]
> 32 µM: IC50 (Aurora kinase B) | EC50 [5] | EC50 (D(1A) dopamine receptor) | EC50 (Adenosine receptor A2a) | EC50 [23]
80 µM: IC50 [8] | IC50 [24]
> 100 µM: IC50 [1] | EC50 (Mu-type opioid receptor) | EC50 [10] | EC50 [11] | IC50 [13] | EC50 [14] | EC50 (Cannabinoid receptor 2) | IC50 (Acetylcholinesterase)
20 µM: EC50 (D(2) dopamine receptor) | EC50 [16]
> 30 µM: EC50 [2] | IC50 [3] | EC50 [6] | IC50 [19] | IC50 [20]
> 25 µM: IC50 [17]
> 16 µM: EC50 [4] | EC50 [9] | EC50 [18]

c1ccc([C@@H]2C[C@H]2NC2CCNCC2)cc1
> 50 µM: IC50 [15]
16 µM: EC50 [16]
> 100 µM: EC50 (Mu-type opioid receptor) | EC50 [6] | EC50 [10] | EC50 [11] | EC50 (D(2) dopamine receptor) | IC50 [13] | EC50 (D(1A) dopamine receptor) | EC50 [14] | EC50 (Cannabinoid receptor 2) | IC50 (Acetylcholinesterase) | EC50 (Adenosine receptor A2a) | EC50 [23] | IC50 [24]
> 25 µM: EC50 (Histamine H1 receptor) | EC50 [7] | EC50 [12] | IC50 [17] | EC50 [21] | EC50 [22]
25 µM: IC50 [1]
5 µM: EC50 [5]
> 30 µM: EC50 [2] | IC50 [3] | EC50 [4] | EC50 [9] | EC50 [18] | IC50 [19] | IC50 [20]
> 32 µM: IC50 (Aurora kinase B)
2 µM: IC50 [8]
